Measurements reported in patent US20070020747A1, “Composition for eliminating ethidium bromide and use thereof” (priority 2005, published 2007).

Key:
[1] = UV examination of EtBr elimination by oxidants in glass bottles (Example 1); conditions: for EtBr cleaning effect: oxidant 500 mM, not illuminated with UV; for EtBr cleaning effect / EtBr-eliminating effect (fluorescence): 60 min; for elimination of EtBr in solution (fluorescence): oxidant 20 or 500 mM, illuminated with UV for 60 minutes, groups 1-3
Procedure: 5M lithium nitrate (LiNO3), 5M sodium nitrite (NaNO2), and 5 µg/ml EtBr solutions were prepared.
7 glass bottles (about 7 ml of capacity) were prepared with solutions as described in Table 1. The bottle 1 was added 4 μl LiNO3 and 996 μl EtBr, wherein the final concentration of LiNO3 was 20 mM. The bottle 2 was added 100 μl LiNO3 and 900 μl EtBr, wherein the final concentration of LiNO3 was 500 mM. The bottle 3 was added 4 μl NaNO2 and 996 μl EtBr, wherein the final concentration of NaNO2 was 20 mM. The bottle 4 was added 100 μl NaNO2 and 900 μl EtBr, wherein the final concentration of NaNO2 was 500 mM. The bottle 5 was added 1 ml EtBr only. The bottle 6 was added 100 μl LiNO3 and 900 μl EtBr. The bottle 7 was added 100 μl NaNO2 and 900 μl EtBr.
The bottles 1-5 were illuminated with ultraviolet, which was 8 W and the wavelength was 180-280 nm. The samples were collected in the time point 0 and 60 minutes. The bottles 6 and 7 were not illuminated with ultraviolet and the samples were collected in the time point 60 minutes.
Except the wavelength of UV was changed to 280˜320 nm, all conditions were identical to group 1.
Except the wavelength of UV was changed to 320˜380 nm, all conditions were identical to group 1.
Each sample was collected 25 μl from the experimental bottle in the selected time point. There were 12 samples for each group, total 36 samples. These samples were dropped on the center of a filter paper (diameter 2.5 cm) and illuminated with UV to observe the elimination of EtBr.

[2] = UV examination of EtBr elimination by oxidants in beakers under a four-tube UV lid (Example 2); conditions: oxidant 50 mM
Procedure: The appearance of the light source was a rectangular lid and the size was 35 cm×21 cm×15 cm. Four parallel 8 W UV tubes were implanted on the top of the lid.
5 beakers were prepared. Beaker 1 and 2 were added 100 μl LiNO3 and 9.9 ml EtBr, so that the final concentration of LiNO3 was 50 mM. Beaker 3 and 4 were added 100 μl NaNO2 and 9.9 ml EtBr, so that the final concentration of NaNO2 was 50 mM. Beaker 5 was added 10 ml EtBr only. The beakers 1, 3 and 5 were illuminated with UV, and the samples were collected in the time points 0, 15, 30, 60 and 120 minutes. The beakers 2 and 4 were not illuminated with UV, and the samples were collected in the time point 120 minutes.
Each sample was collected 25 μl from the experimental beaker in the selected time point. There were 17 samples totally. These samples were dropped on the center of a filter paper (diameter 2.5 cm) and illuminated with UV to observe the elimination of EtBr.

[3] = oxidant plus UV with wavelength 180~280 nm, 8 W
[4] = oxidant plus UV with wavelength 320~380 nm
[5] = oxidant plus UV, second wavelength printed as 180~280 nm (group 2: 280~320 nm)
[6] = after 60 minutes of UV illumination
[7] = after illuminating with UV for 15 minutes

Structure (SMILES)	EtBr cleaning effect [1]	elimination of EtBr in solution (fluorescence) [1]	EtBr-eliminating effect (fluorescence) [1, 3]	EtBr-eliminating effect (fluorescence) [1, 4]	EtBr-eliminating effect (fluorescence) [1, 5]	destruction of EtBr (fluorescence) [2, 6]	destruction of EtBr (fluorescence) [2, 7]	destruction of EtBr (fluorescence) ([2]; no UV illumination, 120 min)
O=[N+]([O-])[O-].[Li+] [lithium nitrate]	no or insignificant EtBr cleaning effect	completely destroyed	strongest effect	less effective	modest effect	almost all of EtBr in the samples were destroyed	most EtBr	not destroyed (or insignificantly destroyed)
O=NO [sodium nitrite]	no or insignificant EtBr cleaning effect	completely destroyed	strongest effect	less effective	modest effect	almost all of EtBr in the samples were destroyed	most EtBr	not destroyed (or insignificantly destroyed)
